Experimental data from the supplement of paper PMC11451515.

Experiments:
Settings in all cases: 48 h
[1] = system: SEM cells; assay: AUC of viability dose-response curve (% viability x log10 dose units); higher = less sensitive
Summary of the method: (§1)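 Seeding of medium-adapted leukemia cells was at 500 or 1000 cells/well in 1536-well plates, followed by 48 h at 37°C with library compounds in DMSO at 11 threefold doses from 47 μM to 0.79 nM. CellTiter-Glo One luminescence was normalised per plate to DMSO and cell-free wells and fitted as a four-parameter log-logistic function of log10 dose. Area under the curve was integrated by trapezoidal rule, with curves exceeding full viability scaled and curves failing quality control removed.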

[2] = system: P12-Ichikawa; assay: as above
Summary of the method: as §1

[3] = system: NOMO1; assay: as above
Summary of the method: as §1

[4] = system: SEM cells; assay: cell viability relative to DMSO control; higher = less cytotoxic
Summary of the method: (§2)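 NOMO1, SEM and P12-Ichikawa leukemia cells spent at least four passages adapting to each medium before use. They were seeded at 500 cells/well (NOMO1, SEM) or 1000 cells/well (P12-Ichikawa) in 5 μl in 1536-well plates and pin-dosed with library compounds in DMSO at 11 threefold steps from 47 μM down to 0.79 nM. After 48 h at 37°C, CellTiter-Glo One luminescence was read. Viability is reported as a percentage of the DMSO wells on each plate, with cell-free wells as background.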

[5] = system: P12-Ichikawa; assay: as above
Summary of the method: as §2

[6] = system: NOMO1; assay: as above
Summary of the method: as §2

[7] = RPMI 5 mM glucose + 10% dialyzed FBS
[8] = HPLM + 10% dialyzed FBS, 0.000781 µM
[9] = HPLM + 10% dialyzed FBS, 0.00234 µM
[10] = HPLM + 10% dialyzed FBS, 0.00702 µM
[11] = HPLM + 10% dialyzed FBS, 0.0211 µM
[12] = HPLM + 10% dialyzed FBS, 0.0632 µM
[13] = HPLM + 10% dialyzed FBS, 0.19 µM
[14] = HPLM + 10% dialyzed FBS, 0.569 µM
[15] = HPLM + 10% dialyzed FBS, 1.71 µM
[16] = HPLM + 10% dialyzed FBS, 5.12 µM
[17] = HPLM + 10% dialyzed FBS, 15.4 µM
[18] = HPLM + 10% dialyzed FBS, 46.1 µM
[19] = RPMI 5 mM glucose + 10% FBS, 0.000781 µM
[20] = RPMI 5 mM glucose + 10% FBS, 0.00234 µM
[21] = RPMI 5 mM glucose + 10% FBS, 0.00702 µM
[22] = RPMI 5 mM glucose + 10% FBS, 0.0211 µM
[23] = RPMI 5 mM glucose + 10% FBS, 0.0632 µM
[24] = RPMI 5 mM glucose + 10% FBS, 0.19 µM
[25] = RPMI 5 mM glucose + 10% FBS, 0.569 µM
[26] = RPMI 5 mM glucose + 10% FBS, 1.71 µM
[27] = RPMI 5 mM glucose + 10% FBS, 5.12 µM
[28] = RPMI 5 mM glucose + 10% FBS, 15.4 µM
[29] = RPMI 5 mM glucose + 10% FBS, 46.1 µM
[30] = RPMI 5 mM glucose + 10% dialyzed FBS, 0.000781 µM
[31] = RPMI 5 mM glucose + 10% dialyzed FBS, 0.00234 µM
[32] = RPMI 5 mM glucose + 10% dialyzed FBS, 0.00702 µM
[33] = RPMI 5 mM glucose + 10% dialyzed FBS, 0.0211 µM
[34] = RPMI 5 mM glucose + 10% dialyzed FBS, 0.0632 µM
[35] = RPMI 5 mM glucose + 10% dialyzed FBS, 0.19 µM
[36] = RPMI 5 mM glucose + 10% dialyzed FBS, 0.569 µM
[37] = RPMI 5 mM glucose + 10% dialyzed FBS, 1.71 µM
[38] = RPMI 5 mM glucose + 10% dialyzed FBS, 5.12 µM
[39] = RPMI 5 mM glucose + 10% dialyzed FBS, 15.4 µM
[40] = RPMI 5 mM glucose + 10% dialyzed FBS, 46.1 µM

O=C(NCc1ccncc1)C12C[C@H]3C[C@@H](C1)CC(c1ccc(Cl)cc1)(C3)C2
AUC of viability dose-response curve ([1]; HPLM + 10% dialyzed FBS): 414 | AUC of viability dose-response curve ([1]; RPMI 5 mM glucose + 10% FBS): 389 | AUC of viability dose-response curve [1, 7]: 420 | AUC of viability dose-response curve ([2]; HPLM + 10% dialyzed FBS): 415 | AUC of viability dose-response curve ([2]; RPMI 5 mM glucose + 10% FBS): 439 | AUC of viability dose-response curve [2, 7]: 438 | AUC of viability dose-response curve ([3]; HPLM + 10% dialyzed FBS): 419 | AUC of viability dose-response curve ([3]; RPMI 5 mM glucose + 10% FBS): 453 | AUC of viability dose-response curve [3, 7]: 451

CN(N=O)C(=O)N[C@H]1C(O)OC(CO)[C@@H](O)[C@@H]1O (some centres undefined)
AUC of viability dose-response curve ([2]; HPLM + 10% dialyzed FBS): 397 | AUC of viability dose-response curve ([2]; RPMI 5 mM glucose + 10% FBS): 383 | AUC of viability dose-response curve [2, 7]: 368 | AUC of viability dose-response curve ([3]; HPLM + 10% dialyzed FBS): 428 | AUC of viability dose-response curve ([3]; RPMI 5 mM glucose + 10% FBS): 391 | AUC of viability dose-response curve [3, 7]: 375 | cell viability [4, 8]: 66.7% | cell viability [4, 9]: 75.4% | cell viability [4, 10]: 79.1% | cell viability [4, 11]: 74.5% | cell viability [4, 12]: 81.8% | cell viability [4, 13]: 74.6% | cell viability [4, 14]: 74% | cell viability [4, 15]: 77.2% | cell viability [4, 16]: 89.2% | cell viability [4, 17]: 40.3% | cell viability [4, 18]: 37.9% | cell viability [4, 19]: 101% | cell viability [4, 20]: 101% | cell viability [4, 21]: 106% | cell viability [4, 22]: 87.8% | cell viability [4, 23]: 106% | cell viability [4, 24]: 76.3% | cell viability [4, 25]: 86.5% | cell viability [4, 26]: 108% | cell viability [4, 27]: 119% | cell viability [4, 28]: 48.3% | cell viability [4, 29]: 51.6% | cell viability [4, 30]: 63.9% | cell viability [4, 31]: 74% | cell viability [4, 32]: 73.7% | cell viability [4, 33]: 63.8% | cell viability [4, 34]: 70.4% | cell viability [4, 35]: 55.1% | cell viability [4, 36]: 80.9% | cell viability [4, 37]: 78.5% | cell viability [4, 38]: 80.8% | cell viability [4, 39]: 32.7% | cell viability [4, 40]: 43.3% | cell viability [5, 8]: 91.5% | cell viability [5, 9]: 84.9% | cell viability [5, 10]: 82.8% | cell viability [5, 11]: 84.2% | cell viability [5, 12]: 89.2% | cell viability [5, 13]: 81.9% | cell viability [5, 14]: 85.8% | cell viability [5, 15]: 82.8% | cell viability [5, 16]: 84.2% | cell viability [5, 17]: 60.5% | cell viability [5, 18]: 83% | cell viability [5, 19]: 83.3% | cell viability [5, 20]: 84.2% | cell viability [5, 21]: 76.3% | cell viability [5, 22]: 75.8% | cell viability [5, 23]: 81.3% | cell viability [5, 24]: 85.2% | cell viability [5, 25]: 74.2% | cell viability [5, 26]: 87.6% | cell viability [5, 27]: 72.8% | cell viability [5, 28]: 78.5% | cell viability [5, 29]: 83.7% | cell viability [5, 30]: 70.2% | cell viability [5, 31]: 81.9% | cell viability [5, 32]: 83.9% | cell viability [5, 33]: 74.1% | cell viability [5, 34]: 79.6% | cell viability [5, 35]: 76.6% | cell viability [5, 36]: 80.2% | cell viability [5, 37]: 81.7% | cell viability [5, 38]: 71.3% | cell viability [5, 39]: 71% | cell viability [5, 40]: 77.5% | cell viability [6, 8]: 82.7% | cell viability [6, 9]: 89.7% | cell viability [6, 10]: 98.6% | cell viability [6, 11]: 95.7% | cell viability [6, 12]: 98.6% | cell viability [6, 13]: 82.6% | cell viability [6, 14]: 90.2% | cell viability [6, 15]: 85% | cell viability [6, 16]: 83.1% | cell viability [6, 17]: 93.1% | cell viability [6, 18]: 88.4% | cell viability [6, 19]: 77.7% | cell viability [6, 20]: 79.6% | cell viability [6, 21]: 82.4% | cell viability [6, 22]: 80.6% | cell viability [6, 23]: 81.3% | cell viability [6, 24]: 90.3% | cell viability [6, 25]: 85.7% | cell viability [6, 26]: 73.7% | cell viability [6, 27]: 81.5% | cell viability [6, 28]: 88% | cell viability [6, 29]: 79.5% | cell viability [6, 30]: 69.3% | cell viability [6, 31]: 78.8% | cell viability [6, 32]: 74.3% | cell viability [6, 33]: 75.5% | cell viability [6, 34]: 84.3% | cell viability [6, 35]: 75.6% | cell viability [6, 36]: 81.2% | cell viability [6, 37]: 82.7% | cell viability [6, 38]: 81.4% | cell viability [6, 39]: 86% | cell viability [6, 40]: 72.4%
